In brackets after ≈: the same amount, converted by molar mass. Like-named read-outs stand apart in the source and are kept apart here.
System: S. aureus clinical isolates and S. aureus ATCC 29213
Assay: MIC assay according to CLSI criteria, Example 2, S. aureus strains
Format: cell-based, Staphylococcus aureus
Conditions: Staphylococcus aureus, read-out: MIC
Procedure: Strains were conserved in Luria Bertani (LB) Broth (S. aureus) or Brain Heart Infusion (BHI) (S. pyogenes) supplemented with glycerol 15% (v/v) at −80° C., and reactivated by isolation on LB (S. aureus) or BHI (S. pyogenes) agar plates. Strains were cultivated in Mueller Hinton (MH) Broth-cation adjusted (S. aureus) or BHI (S. pyogenes). All strains were cultivated aerobically (microaerobically for S. pyogenes strains) at 37° C.
Bacterial cultures were stopped in their exponential growth phase and plates were inoculated with the approximate concentration of 5×10^5 cells per well. Plates were incubated at 37° C. for 18 hours (S. aureus) or 24 hours (S. pyogenes).

SMILES: O=C(Nc1ccc([N+](=O)[O-])cc1Cl)c1cc(Cl)ccc1O [Niclosamide, 5-chloro-N-(2-chloro-4-nitrophenyl)-2-hydroxybenz-amide]
- MIC (ATCC 29213 / MRSA, strain MRSA 12): 0.5 µg/mL (≈ 1.53 µM)
- MIC (ATCC 29213 / MRSA, strain MRSA 13): 0.25 µg/mL (≈ 0.764 µM)
- MIC (ATCC 29213 / MRSA, strain MRSA 14): 0.25 µg/mL (≈ 0.764 µM)
- MIC (ATCC 29213 / MRSA, strain MRSA 15): 0.25 µg/mL (≈ 0.764 µM)
- MIC (ATCC 29213 / MRSA, strain MRSA 16): 0.25 µg/mL (≈ 0.764 µM)
- MIC (ATCC 29213 / MRSA, strain MRSA 17): 0.25 µg/mL (≈ 0.764 µM)
- MIC (ATCC 29213 / MRSA, strain MRSA 18): 0.25 µg/mL (≈ 0.764 µM)
- MIC (ATCC 29213 / MRSA, strain MRSA 19): 0.25 µg/mL (≈ 0.764 µM)
- MIC (ATCC 29213 / MRSA, strain MRSA 20): 0.25 µg/mL (≈ 0.764 µM)
- MIC (ATCC 29213 / MRSA, strain MRSA 21): 0.25 µg/mL (≈ 0.764 µM)
- MIC (ATCC 29213 / MRSA, strain MRSA 22): 0.25 µg/mL (≈ 0.764 µM)
- MIC (ATCC 29213 / MRSA, strain MRSA 23): 0.25 µg/mL (≈ 0.764 µM)
- MIC (ATCC 29213 / MRSA, strain MRSA 24): 0.25 µg/mL (≈ 0.764 µM)
- MIC (ATCC 29213 / MRSA, strain MRSA 25): 0.25 µg/mL (≈ 0.764 µM)
- MIC (ATCC 29213 / MRSA, strain MRSA 26): 0.5 µg/mL (≈ 1.53 µM)
- MIC (ATCC 29213 / MRSA, strain MRSA 27): 0.5 µg/mL (≈ 1.53 µM)
- MIC (ATCC 29213 / MRSA, strain MRSA 27b): 0.25 µg/mL (≈ 0.764 µM)
- MIC (ATCC 29213 / MRSA, strain MRSA 28): 0.25 µg/mL (≈ 0.764 µM)
- MIC (ATCC 29213 / MRSA, strain MRSA 29): 0.5 µg/mL (≈ 1.53 µM)
- MIC (ATCC 29213 / MRSA, strain MRSA 30): 0.25 µg/mL (≈ 0.764 µM)
- MIC (ATCC 29213 / MRSA, strain MRSA 31): 0.25 µg/mL (≈ 0.764 µM)
- MIC (ATCC 29213 / MRSA, strain MRSA 32): 0.25 µg/mL (≈ 0.764 µM)
- MIC (ATCC 29213 / MRSA, strain MRSA 33): 0.25 µg/mL (≈ 0.764 µM)
- MIC (ATCC 29213 / MRSA, strain MRSA 34): 0.25 µg/mL (≈ 0.764 µM)
- MIC (ATCC 29213 / MRSA, strain MRSA 35): 0.25 µg/mL (≈ 0.764 µM)
- MIC (ATCC 29213 / MRSA, strain MRSA 36): 0.25 µg/mL (≈ 0.764 µM)
- MIC (ATCC 29213 / MRSA, strain MRSA 37): 0.25 µg/mL (≈ 0.764 µM)
- MIC (ATCC 29213 / MRSA, strain MRSA 38): 0.25 µg/mL (≈ 0.764 µM)
- MIC (ATCC 29213 / MRSA, strain MRSA 39): 0.25 µg/mL (≈ 0.764 µM)
- MIC (ATCC 29213 / MRSA, strain MRSA 40): 0.25 µg/mL (≈ 0.764 µM)
- MIC (ATCC 29213 / MRSA, strain MRSA 41): 0.25 µg/mL (≈ 0.764 µM)
- MIC (ATCC 29213 / MRSA, strain MRSA 42): 0.25 µg/mL (≈ 0.764 µM)
- MIC (ATCC 29213 / MRSA, strain MRSA 43): 0.25 µg/mL (≈ 0.764 µM)
- MIC (ATCC 29213 / MRSA, strain MRSA 44): 0.25 µg/mL (≈ 0.764 µM)
- MIC (ATCC 29213 / MRSA, strain MRSA 45): 0.25 µg/mL (≈ 0.764 µM)
- MIC (ATCC 29213 / MRSA, strain MRSA 46): 0.25 µg/mL (≈ 0.764 µM)
- MIC (ATCC 29213 / MRSA, strain MRSA 47): 0.25 µg/mL (≈ 0.764 µM)
- MIC (ATCC 29213 / MRSA, strain MRSA 48): 0.25 µg/mL (≈ 0.764 µM)
- MIC (ATCC 29213 / MRSA, strain MRSA 49): 0.25 µg/mL (≈ 0.764 µM)
- MIC (ATCC 29213 / MRSA, strain MRSA 50): 0.25 µg/mL (≈ 0.764 µM)
- MIC (ATCC 29213 / MRSA, strain MRSA 51): 0.125 µg/mL (≈ 0.382 µM)
- MIC (ATCC 29213 / MRSA, strain MRSA 52): 0.25 µg/mL (≈ 0.764 µM)
- MIC (ATCC 29213 / MRSA, strain MRSA 53): 0.25 µg/mL (≈ 0.764 µM)
- MIC (ATCC 29213 / MRSA, strain MRSA 54): 0.25 µg/mL (≈ 0.764 µM)
- MIC (ATCC 29213 / MRSA, strain MRSA 55): 0.25 µg/mL (≈ 0.764 µM)
- MIC (ATCC 29213 / MRSA, strain MRSA 56): 0.25 µg/mL (≈ 0.764 µM)
- MIC (ATCC 29213 / MRSA, strain MRSA 57): 0.25 µg/mL (≈ 0.764 µM)
- MIC (ATCC 29213 / MRSA, strain MRSA 58): 0.25 µg/mL (≈ 0.764 µM)
- MIC (ATCC 29213 / MRSA, strain MRSA 59): 0.25 µg/mL (≈ 0.764 µM)
- MIC (ATCC 29213 / MRSA, strain MRSA 60): 0.25 µg/mL (≈ 0.764 µM)
- MIC (ATCC 29213 / MRSA, strain MRSA 61): 0.25 µg/mL (≈ 0.764 µM)
- MIC (ATCC 29213 / MRSA, strain MRSA 62): 0.25 µg/mL (≈ 0.764 µM)
- MIC (ATCC 29213 / MRSA, strain MRSA 63): 0.25 µg/mL (≈ 0.764 µM)
- MIC (ATCC 29213 / MRSA, strain MRSA 64): 0.25 µg/mL (≈ 0.764 µM)
- MIC (ATCC 29213 / MRSA, strain MRSA 65): 0.25 µg/mL (≈ 0.764 µM)
- MIC (ATCC 29213 / MRSA, strain MRSA 66): 0.25 µg/mL (≈ 0.764 µM)
- MIC (ATCC 29213 / MRSA, strain MRSA 67): 0.25 µg/mL (≈ 0.764 µM)
- MIC (ATCC 29213 / MRSA, strain MRSA 68): 0.25 µg/mL (≈ 0.764 µM)
- MIC (ATCC 29213 / MRSA, strain MRSA 69): 0.25 µg/mL (≈ 0.764 µM)
- MIC (ATCC 29213 / MRSA, strain MRSA 70): 0.125 µg/mL (≈ 0.382 µM)
- MIC (ATCC 29213 / MRSA, strain MRSA 71): 0.25 µg/mL (≈ 0.764 µM)
- MIC (ATCC 29213 / MRSA, strain MRSA 72): 0.25 µg/mL (≈ 0.764 µM)
- MIC (ATCC 29213 / MRSA, strain MRSA 73): 0.5 µg/mL (≈ 1.53 µM)
- MIC (ATCC 29213 / MRSA, strain MRSA 74): 0.25 µg/mL (≈ 0.764 µM)
- MIC (ATCC 29213 / MRSA, strain MRSA 75): 0.5 µg/mL (≈ 1.53 µM)
- MIC (ATCC 29213 / MRSA, strain MRSA 76): 0.25 µg/mL (≈ 0.764 µM)
- MIC (ATCC 29213 / MRSA, strain MRSA 77): 0.25 µg/mL (≈ 0.764 µM)
- MIC (ATCC 29213 / MRSA, strain MRSA 78): 0.5 µg/mL (≈ 1.53 µM)
- MIC (ATCC 29213 / MRSA, strain MRSA 79): 0.25 µg/mL (≈ 0.764 µM)
- MIC (ATCC 29213 / MRSA, strain MRSA 80): 0.5 µg/mL (≈ 1.53 µM)
- MIC (ATCC 29213 / MRSA, strain MRSA 81): 0.5 µg/mL (≈ 1.53 µM)
- MIC (ATCC 29213 / MRSA, strain MRSA 82): 0.25 µg/mL (≈ 0.764 µM)
- MIC (ATCC 29213 / MRSA, strain MRSA 83): 0.5 µg/mL (≈ 1.53 µM)
- MIC (ATCC 29213 / MRSA, strain MRSA 84): 0.25 µg/mL (≈ 0.764 µM)
- MIC (ATCC 29213 / MRSA, strain MRSA 85): 0.5 µg/mL (≈ 1.53 µM)
- MIC (ATCC 29213 / MRSA, strain MRSA 86): 0.25 µg/mL (≈ 0.764 µM)
- MIC (ATCC 29213 / MRSA, strain MRSA 87): 0.25 µg/mL (≈ 0.764 µM)
- MIC (ATCC 29213 / MRSA, strain MRSA 88): 0.25 µg/mL (≈ 0.764 µM)
- MIC (ATCC 29213 / MRSA, strain MRSA 89): 0.5 µg/mL (≈ 1.53 µM)
- MIC (ATCC 29213 / MRSA, strain MRSA 90): 0.5 µg/mL (≈ 1.53 µM)
- MIC (ATCC 29213 / MRSA, strain MRSA 91): 0.25 µg/mL (≈ 0.764 µM)
- MIC (ATCC 29213 / MRSA, strain MRSA 92): 0.25 µg/mL (≈ 0.764 µM)
- MIC (ATCC 29213 / MRSA, strain MRSA 93): 0.25 µg/mL (≈ 0.764 µM)
- MIC (ATCC 29213 / MRSA, strain MRSA 94): 0.25 µg/mL (≈ 0.764 µM)
- MIC (ATCC 29213 / MRSA, strain MRSA 95): 0.25 µg/mL (≈ 0.764 µM)
- MIC (ATCC 29213 / MRSA, strain MRSA 96): 0.25 µg/mL (≈ 0.764 µM)
- MIC (ATCC 29213 / MRSA, strain MRSA 97): 0.25 µg/mL (≈ 0.764 µM)
- MIC (ATCC 29213 / MRSA, strain MRSA 98): 0.5 µg/mL (≈ 1.53 µM)
- MIC (ATCC 29213 / MRSA, strain MRSA 99): 0.25 µg/mL (≈ 0.764 µM)
- MIC (ATCC 29213 / MRSA, strain MRSA 100): 0.25 µg/mL (≈ 0.764 µM)
- MIC (ATCC 29213 / MRSA, strain MRSA 101): 0.5 µg/mL (≈ 1.53 µM)
- MIC (ATCC 29213 / MRSA, strain MRSA 102): 0.25 µg/mL (≈ 0.764 µM)
- MIC (ATCC 29213 / MRSA, strain MRSA 103): 0.25 µg/mL (≈ 0.764 µM)
- MIC (ATCC 29213 / MRSA, strain MRSA 104): 0.5 µg/mL (≈ 1.53 µM)
- MIC (ATCC 29213 / MRSA, strain MRSA 105): 0.25 µg/mL (≈ 0.764 µM)
- MIC (ATCC 29213 / MRSA, strain MRSA 106): 0.25 µg/mL (≈ 0.764 µM)
- MIC (ATCC 29213 / MRSA, strain MRSA 107): 0.25 µg/mL (≈ 0.764 µM)
- MIC (ATCC 29213 / MRSA, strain MRSA 108): 0.25 µg/mL (≈ 0.764 µM)
- MIC (ATCC 29213 / MRSA, strain MRSA 109): 0.25 µg/mL (≈ 0.764 µM)
- MIC (ATCC 29213 / MRSA, strain MRSA 110): 0.25 µg/mL (≈ 0.764 µM)
- MIC (ATCC 29213 / MRSA, strain MRSA 111): 0.5 µg/mL (≈ 1.53 µM)
- MIC (ATCC 29213 / MRSA, strain MRSA 112): 0.25 µg/mL (≈ 0.764 µM)
- MIC (ATCC 29213 / MRSA, strain MRSA 113): 0.25 µg/mL (≈ 0.764 µM)
- MIC (ATCC 29213 / MSSA, strain MSSA 01): 0.5 µg/mL (≈ 1.53 µM)
- MIC (ATCC 29213 / MSSA, strain MSSA 02): 0.25 µg/mL (≈ 0.764 µM)
- MIC (ATCC 29213 / NEWMAN, strain Newman): 0.25 µg/mL (≈ 0.764 µM)

Source: patent publication US11331327B2, “Antibacterial use of halogenated salicylanilides” (UNION therapeutics A/S, priority 2014, dated 2022)
